US20090179638A1, “ASSAY FOR IDENTIFYING INHIBITORS OF NEURONAL APOPTOTIC PATHWAYS” (AEGERA THERAPEUTICS INC., priority 2006, published 2009)
Entries after “also recorded” stand apart in the source; their conditions may differ.

Columns and labels:
SCG neurons = assay: NGF-withdrawal induced cell death of SCG neurons (MTS assay); type: cell-based, rat; conditions: SCG neurons withdrawn from NGF, 48 hours
Procedure: FIG. 1 is a graph showing that compound 1 inhibits NGF-withdrawal induced cell death. Cultures of rat SCG neurons (see Materials and Methods) initially maintained in 10 ng/ml of NGF were withdrawn from NGF and maintained in media containing compound 1 at the concentrations indicated for 48 hours. Cellular viability was assayed using an MTS assay. (*=P<0.01 relative to no compound 1). Experiments were performed three times with identical results.
Survival of neonatal primary sympathetic neurons is dependent on trophic support provided by Neuronal Growth Factor (NGF) (reviewed in (Young et al., 2004)).
Cell culture, infection, transfection and immunoblotting. Sympathetic neurons were maintained and deprived of NGF as previously described (Bamji et al., 1998; Ma et al., 1992). PC12^rtTA cells were maintained and infected as previously described (Majdan et al., 1997; Salehi et al., 2002); for NRAGE, […] doxycycline was added to all plates at time of infection. Wildtype and HSF1 nullizygous immortalized mouse embryonic fibroblasts (MEFs) were maintained in DMEM containing 10% fetal calf serum, 1 μM β-mercaptoethanol, 1% non-essential amino acids, 1% L-glutamine, 1% antimycotic solution and 1% sodium pyruvate (all from GibcoBRL). Sympathetic neuron survival was assessed using the MTS assay according to the manufacturer's instructions (Promega). Analysis of PC12 cell death was determined using a lactate dehydrogenase (LDH) assay (Roche) as per the manufacturer's instructions. Transfections using plasmids or RNAi were performed using Lipofectamine 2000. Immunoblotting was performed as previously described (Majdan et al., 1997; Salehi et al., 2002).

HSP70 = assay: HSP protein expression in PC12 / PC12rtTA cells (immunoblot); type: cell-based; conditions: for HSP70 production: PC12rtTA cells infected with AdNRG, Adp75 or AdLacZ, 30 hours (FIG. 6A)
Procedure: FIGS. 4A-4C are photographs of Western blots which illustrate that compound 1 treatment of PC12 cells induces expression of HSP70. A: PC12 cells were infected with 5 MOI of AdNRG (NRG) or AdLacZ (LacZ) as indicated. Cells were left untreated (0) or treated with 40 μM compound 1 at time of infection (30), one hour before lysis (1), or at both times (30+1). Cells were lysed thirty hours after infection, normalized for protein content, and analyzed for levels of phospho-Ser^63 c-Jun and total c-Jun, total JNK, IkBα, and NRAGE by immunoblotting. Lysates from untreated cells are indicated by ‘−’. B: PC12 cells were treated with the indicated concentrations of compound 1 for 18 hours and then lysed, normalized for protein content, and analyzed for levels of HSP70 by immunoblotting. Lysates from untreated cells are indicated by ‘−’. C: RNA isolated from PC12^rtTA cells treated with increasing concentrations of compound 1 for 18 hours was analyzed by rtPCR using primers specific to HSP70, HSP25, HSP90 or actin, as indicated. Experiments in Panel A and B were performed three times and that in Panel C was performed twice, with essentially identical results. D: PC12^rtTA cells were infected with AdNRG at 5 MOI, Adp75 at 50 MOI, or the control virus AdLacZ at 50 MOI. At time of infection, the cells were treated with increasing concentrations of compound 1, or with vehicle alone, as indicated. Thirty hours after infection, cells were lysed, normalized for protein content, and analyzed for levels of c-Jun phosphorylation, HSP70, HSP25, HSP40, NRAGE, p75NTR, JNK-1 and IkBα, as indicated.
FIGS. 6A, 6B and 6C are graphs and photographs of Western blots which illustrate that compound 1 analogues inhibit JNK activation and induce expression of HSP70. A: PC12^rtTA cells were infected with 5 MOI of AdNRG, 50 MOI of Adp75 or 50 MOI of the control virus AdLacZ. At time of infection, the cells were treated with an increasing concentrations of compound 1, or its analogues, compound 2, compound 3, compound 4, or with vehicle alone, as indicated. Thirty hours after infection, cells were lysed, normalized for protein levels, and analyzed for levels of HSP70, HSP25 and JNK-1, as indicated. B: PC12^rtTA cells were treated as above and after 40 hours infection were assayed for death using the lactate dehydrogenase (LDH) assay. Results are normalized relative to those obtained with 1% Triton, and represent the mean±standard deviation of a representative experiment performed in triplicate (*=P<0.025 relative to ‘0’ for each compound concentration). C: PC12^rtTA cells were infected with 50 MOI of LacZ or 5 MOI of AdNRG50 and at the time of infection, were treated with 40 μM compound 1, or its analogues, compound 2, compound 3, compound 4, or with vehicle alone, as indicated. Thirty hours after infection, cells were lysed, normalized for protein levels, and were analyzed for phosphorylated c-Jun, total c-Jun, NRAGE and JNK-1, as indicated. Experiments in Panel A and C were performed twice and that in B were performed twice, with essentially identical results.
To address this, SCG neurons were treated with compound 1 for 18 hours then lysed and assessed for HSP70 levels by immunoblot. Uninfected PC12rtTA cells were treated in a similar manner. […] To test if the accumulation of HSP70 induced by compound 1 reflected increased steady state levels of its mRNA, RNA was isolated from PC12 cells treated with increasing concentrations of compound 1 for 18 hours and the cell lysates subjected to semi-quantitative rtPCR. […] HSP protein levels were also assessed in PC12rtTA cells infected with AdLacZ, Adp75, or AdNRG, and at the same time, exposed to compound 1.

[1] = cells infected with LacZ or Adp75, increasing concentrations

SMILES	protection from NGF-withdrawal induced cell death (SCG neurons)	HSP70 production (HSP70)	HSP70 levels versus AdNRG alone (HSP70; cells infected with AdNRG)	HSP40 protein level (HSP70; [1])	HSP70 and HSP25 protein levels (HSP70; [1])	cellular HSP70 levels (HSP70; uninfected PC12rtTA cells, 18 hours)
NS(=O)(=O)c1nn2cc(-c3ccccc3)nc2s1 [Compound 1]	protected; also recorded: inhibits	induced HSP70 production	substantially higher	not HSP40	robust increase	large increase
NS(=O)(=O)c1nn2cc(-c3ccc(N4CCOCC4)cc3)nc2s1 [Compound 2]	protected	robustly induced HSP70 production				
